How the values were obtained:
[1] = tested on: R6/2^300Q mice; design: method as in PMID 18829438; conditions: cited from earlier work
[2] = Permeability in MDCK cells; assay type: in vitro ADME; conditions: dog, pH 7.4
Protocol: The MDR1-MDCKII and wild type MDCKII cell lines (obtained from SOLVO Biotechnology) were cultured in accordance with the guidelines provided by SOLVO Biotechnology. Both wild-type MDCK and MDR1-MDCK cells were seeded at a cell density of 2.3×10^5 cells/well into 24-well Transwell plates and cultured for three days to form monolayers. Test compound was loaded into the donor compartments of the Transwell plate (24-well) bearing MDR1-MDCK or wild type MDCK monolayers. Test compound was added to either the apical or basolateral chambers of the Transwell plate assembly at a concentration of 10 µM in Hanks’ Balanced Salt Solution containing 25 mM HEPES (pH 7.4). Lucifer Yellow was added to the apical buffer in all wells and its permeation monitored to assess integrity of the cell layer. […] Concentrations of compound in the samples were measured by LC-MS/MS. Concentrations of LY in the samples were measured using a fluorescence plate reader. The apparent permeability (Papp) values of test compound were determined for both the apical to basal (A>B) and basal to apical (B>A) permeation and the efflux ratio (B>A: A>B) determined in both the wild type MDCK and MDR1-MDCK cells. Apparent permeability (Papp) values were calculated from the relationship: [drawing 5] […]

[3] = Simulated gastric fluid stability; assay type: in vitro ADME
Protocol: Simulated gastric fluid (SGF), pH 1.2, was prepared containing 2 g/L sodium chloride, 3.2 g/L of pepsin, 0.7% (v/v) HCl. Gastric buffer, pH 1.2, was also prepared containing 2 g/L sodium chloride and 0.7% (v/v) HCl. Test compound (10 µM) was added to both fluids and samples were mixed at room temperature on an orbital shaker. At each time-point (0, 2 and 4 h) 50 µL of sample was added to 150 µL DMSO, mixed and analysed immediately. Samples were analysed by LC-UV (λ = 254 nm. The instrument responses (i.e. chromatographic peak areas) were referenced to the zero time-point samples (as 100%) in order to determine the percentage of compound remaining at each time-point.

[4] = tested on: AR (h); assay: Cerep binding, agonist radioligand; design: species or system human; conditions: 10 μM
Description: In addition to the HDAC profiling performed, we also queried 4b for any apparent potential off-target effects, which could complicate any finding of efficacy or adverse events in vivo due to ‘polypharmacy’. This was accomplished by screening against a ‘diversity panel’ of 72 binding and 29 enzyme assays, comprised of roughly equal numbers of selective central and peripheral therapeutically relevant targets (Cerep Diversity Profile). This panel included representative targets from diverse enzyme families, G protein coupled receptors, steroid nuclear receptors, voltage- and ligand-gated ion channels. While not totally inclusive, it is a useful tool for discovery compounds to assess their viability as proof of concept molecules to specifically query a particular target. 4b was initially screened at 10 µM in duplicate. The full set of results is provided as Table S1. […] This clean in vitro profile was considered acceptable to proceed to ADME and pharmacokinetic studies.

| SMILES | gene expression abnormalities ([1]; 150 mg/kg subcutaneous once daily for 3 days) | motor performance and appearance in chronic efficacy study ([1]; drinking water, estimated 150 mg/kg/day, from 4 months of age) | Papp A→B at 1 h, 10 µM [2] [×10⁻⁶ cm/s] | turnover in simulated gastric fluid ([3]; in 4 h) [%] | half-life at 10 µM ([3]; simulated gastric fluid (SGF), pH 1.2) [h] | % inhibition of control specific binding [4] [%] |
| --- | --- | --- | --- | --- | --- | --- |
| Nc1ccccc1NC(=O)CCCCCC(=O)Nc1ccccc1 [Compound 4b] | successfully ameliorated gene expression abnormalities | improved motor performance | 10.8 | 5 | > 10 |  |
| O=C(CCCCCc1nc2ccccc2[nH]1)Nc1ccccc1 [Compound C1, 6-(1-H-benzo[d]imidazol-2-yl)-N-phenylhexanamide] |  |  |  |  |  | 3 |

Source: article PMC3433414, “Oral Administration of the Pimelic Diphenylamide HDAC Inhibitor HDACi 4b Is Unsuitable for Chronic Inhibition of HDAC Activity in the CNS In Vivo” (PLoS ONE, 2012)
